Assay results published in patent US20030181401A1, “Insulin secretion promoter” (KYOWA HAKKO KOGYO CO., LTD., priority 2002, published 2003).

Columns and labels:
Type in all cases: in vivo
db/db mice [1] = experiment: Test Example 5: serum insulin in glucose tolerance test after 7-day oral dosing of saccharides; settings: for insulin concentration during glucose loading compared with the control group (in words): continuous daily oral dosing; for Serum insulin concentration after glucose loading, 30 minutes / Serum insulin concentration after glucose loading, 120 minutes / Serum insulin concentration after glucose loading, Zero minute: oral 200 + 300 mg/kg daily, 7 days, glucose 2 g/kg oral, mean ± SD
Procedure: (§1) Groups of male 9-week-old db/db mice (Clea Japan, Inc.) each consisting of 6 mice were fed CE-2 (Clea Japan, Inc.) for one week, so as to accustom the animals to the environment.
After acclimation, individual aqueous 10% solutions of lacto-N-neotetraose (abbreviated as “LNnT” hereinafter) and NeuAc were orally administered to the mice at 200 mg (saccharide)/kg body weight in the morning and at 300 mg (saccharide)/kg body weight in the evening. The same volume of saline was administered to the control group. The individual aqueous saccharide solutions and saline were both dosed daily to the mice for 7 days. During the dosing period, CE-2 was given together with drinking water ad libitum.
(§2) After 18-hour starvation from the final dosing on day 7, an aqueous 40% glucose solution was orally administered to 2 g (glucose)/kg body weight to the mice, to perform glucose tolerance test. Zero minute and 30 minutes after glucose loading, blood was taken from a tail vein. […] Blood was centrifuged (4° C., 10000 rpm, 10 minutes), to obtain serum.
(§3) Insulin in the serum recovered was assayed by enzyme immunoassay using Lebis Insulin kit (for rats-T) (Shibayagi, Co., Ltd.) in the same manner as in the Test Example 1.

db/db mice [2] = experiment: Test Example 4: serum insulin in glucose tolerance test after 7-day oral dosing of saccharides; settings: for serum insulin concentration during glucose loading compared with the control group (in words): continuous daily oral dosing; for Serum insulin concentration after glucose loading, 30 minutes / Serum insulin concentration after glucose loading, 120 minutes / Serum insulin concentration after glucose loading, Zero minute: oral 200 + 300 mg/kg daily, 7 days, glucose 2 g/kg oral, mean ± SD
Procedure: as §1
After acclimation, individual aqueous 10% solutions of 3′-sialyllactose (abbreviated as “3′-SL” hereinafter), 6′-sialylactose (abbreviated as “6′-SL”) and 2′-FL were orally administered to the mice at 200 mg (saccharide)/kg body weight in the morning and at 300 mg (saccharide)/kg body weight in the evening. The both volume of saline was administered to the control group. The individual aqueous saccharide solutions and saline were both dosed daily to the mice for 7 days. During the dosing period, CE-2 was given together with drinking water ad libitum.
as §2, §3

db/db mice [3] = experiment: Test Example 3: serum insulin on day 8 after 7-day oral dosing of saccharides; settings: for serum insulin concentration compared with the control group (in words): continuous daily oral dosing; for Serum insulin concentration after dosing of the individual saccharides: oral 200 + 300 mg/kg daily, 7 days, blood on day 8, no glucose loading, mean ± SD
Procedure: Group of male 9-week-old db/db mice (Clea Japan, Inc.) each consisting of 6 mice were fed CE-2 (Clea Japan, Inc.) for one week, so as to accustom the animals to the environment.
After acclimation, individual aqueous 10% solutions of globotriose (abbreviated “globo” hereinafter), N-acetyllactosamine (abbreviated as “LacNac” hereinafter) and N-acetylneuraminic acid (abbreviated as “NeuAc” hereinafter) were orally administered to the mice at 200 mg (saccharide)/kg body weight in the morning and at 300 mg (saccharide)/kg body weight in the evening.
The same volume of saline was administered to the control group. The individual aqueous saccharide solutions and saline were both dosed daily to the mice for 7 days. During the dosing period, CE-2 was given together with drinking water ad libitum.
Blood was centrifuged (4° C., 10000 rpm, 10 minutes), to obtain serum.
as §3

ICR mice [4] = experiment: Test Example 6: serum glucose after intravenous saccharide with simultaneous oral glucose loading
Procedure: (§4) Groups of male 9-week-old ICR mice (Japan SLC, Inc.) each consisting of 7 mice were fed CE-2 (Clea Japan, Inc.) for one week, so as to accustom the animals to the environment. Then, the mice were fasted for 18 hours.
(§5) An aqueous 10% solution of 2′-FL or NeuAc was intravenously administered to the mice to 500 mg (saccharide)/kg body weight, while an aqueous 40% glucose solution was orally administered simultaneously to 2 g (glucose)/kg body weight, to the mice. To the control group, physiological saline was administered intravenously, while glucose was orally administered simultaneously to 2 g/kg body weight. Zero minute and 30 minutes after glucose loading, blood was taken from a tail vein. […] Blood was centrifuged (4° C., 10000 rpm, 10 minutes), to obtain serum.
Furthermore, the glucose concentration in the serum recovered was also assayed. The glucose concentration was assayed, using Glucose CII-TEST WAKO (WAKO Pure Chemical Industries, Ltd.). 2 μl of the recovered serum was placed in a 96-well plate, followed by addition of 200 μl of the chromogenic solution attached to the kit, for incubation at 37° C. for 10 minutes. After incubation, the absorbance at 490 nm was assayed with a plate reader. Herein, a standard curve was prepared by using aqueous 500 mg/dl glucose solution as the standard solution to dilute the standard solution appropriately for the same reaction as for the serum, and plotting the relation between the concentration and the absorbance (490 nm). Based on the prepared standard curve and the absorbance from the reaction with the serum, the glucose concentration in the serum was determined.

ICR mice [5] = experiment: Test Example 6: serum insulin after intravenous saccharide with simultaneous oral glucose loading
Procedure: as §4, §5
Insulin in the serum recovered was assayed by enzyme immunoassay using Lebis Insulin kit (for mice-T) (Shibayagi, Co., Ltd.) in the same manner as in the Test Example 2.

[6] = ICR mice fasted 18 hours, 500 mg/kg intravenous with simultaneous glucose 2 g/kg oral, 30 minutes, mean ± SD
[7] = ICR mice fasted 18 hours, 500 mg/kg intravenous with simultaneous glucose 2 g/kg oral, 120 minutes, mean ± SD

SMILES | insulin concentration during glucose loading compared with the control group (in words) (db/db mice [1]) | Serum insulin concentration after glucose loading, 30 minutes (db/db mice [1]) [ng/mL] | Serum insulin concentration after glucose loading, 120 minutes (db/db mice [1]) [ng/mL] | Serum insulin concentration after glucose loading, Zero minute (db/db mice [1]) [ng/mL] | serum insulin concentration during glucose loading compared with the control group (in words) (db/db mice [2]) | Serum insulin concentration after glucose loading, 30 minutes (db/db mice [2]) [ng/mL] | Serum insulin concentration after glucose loading, 120 minutes (db/db mice [2]) [ng/mL] | Serum insulin concentration after glucose loading, Zero minute (db/db mice [2]) [ng/mL] | serum insulin concentration compared with the control group (in words) (db/db mice [3]) | Serum insulin concentration after dosing of the individual saccharides (db/db mice [3]) [ng/mL] | also measured
CC(=O)N[C@H]1[C@H](O[C@H]2[C@@H](O)[C@@H](CO)O[C@@H](O[C@H]3[C@H](O)[C@@H](O)C(O)O[C@@H]3CO)[C@@H]2O)O[C@H](CO)[C@@H](O[C@@H]2O[C@H](CO)[C@H](O)[C@H](O)[C@H]2O)[C@@H]1O (mixture of isomers) [LNnT, lacto-N-neotetraose] | increased | 21.7 ± 13.8 | 25.9 ± 13.2 | 8.9 ± 2.0 |  |  |  |  |  |  | 
CC(=O)N[C@H]1[C@H]([C@H](O)[C@H](O)CO)O[C@@](O[C@H]2[C@@H](O)[C@@H](CO)O[C@@H](O[C@H]3[C@H](O)[C@@H](O)C(O)O[C@@H]3CO)[C@@H]2O)(C(=O)O)C[C@@H]1O (some centres unmarked) [3′-SL, 3′-sialyllactose] |  |  |  |  | increased | 5.1 ± 1.9 | 22.0 ± 12.5 | 6.0 ± 2.2 |  |  | 
CC(=O)N[C@H]1[C@H]([C@H](O)[C@H](O)CO)O[C@@](OC[C@H]2O[C@@H](O[C@H]3[C@H](O)[C@@H](O)[C@H](O)O[C@@H]3CO)[C@H](O)[C@@H](O)[C@H]2O)(C(=O)O)C[C@@H]1O [6′-SL, 6′-sialylactose] |  |  |  |  | increased | 6.6 ± 3.4 | 17.9 ± 6.3 | 5.9 ± 3.0 |  |  | 
OC[C@H]1O[C@H](O[C@@H]2[C@H](O)[C@@H](O)[C@H](O[C@H]3[C@H](O)[C@@H](O)C(O)O[C@@H]3CO)O[C@@H]2CO)[C@H](O)[C@@H](O)[C@H]1O (some centres unmarked) [Globo, globotriose] |  |  |  |  |  |  |  |  | increased | 23.7 ± 16.4 | 
CC(=O)N[C@H]1C(O)O[C@H](CO)[C@@H](O[C@@H]2O[C@H](CO)[C@H](O)[C@H](O)[C@H]2O)[C@@H]1O (some centres unmarked) [LacNac, N-acetyllactosamine] |  |  |  |  |  |  |  |  | increased | 26.8 ± 11.5 | 
CC(=O)N[C@H]1[C@H]([C@H](O)[C@H](O)CO)OC(O)(C(=O)O)C[C@@H]1O (some centres unmarked) [NeuAc, N-acetylneuraminic acid] | increased | 18.5 ± 8.5 | 30.3 ± 10.7 | 8.9 ± 7.7 |  |  |  |  | increased | 68.4 ± 45.9 | Serum glucose concentration after glucose loading, 30 minutes (ICR mice [4]; [6]): 300.9 ± 101.6 mg/dL; Serum glucose concentration after glucose loading, 120 minutes (ICR mice [4]; [7]): 197.6 ± 28.8 mg/dL; Serum glucose concentration after glucose loading, Zero minute (ICR mice [4]; ICR mice fasted 18 hours, 500 mg/kg intravenous with simultaneous glucose 2 g/kg oral, zero minute, mean ± SD): 102.6 ± 12.1 mg/dL; increase of the serum glucose concentration compared with the control group (in words) (ICR mice [4]; ICR mice, intravenous dosing): suppressed; Serum insulin concentration after glucose loading, 30 minutes (ICR mice [5]; [6]): 178.3 ± 105.5 pg/mL; Serum insulin concentration after glucose loading, 120 minutes (ICR mice [5]; [7]): 384.4 ± 394.1 pg/mL; serum insulin concentration after glucose loading compared with the control group (in words) (ICR mice [5]; ICR mice, intravenous dosing): increased
